Experiments:
[1] = biological target: His6-TEV-PDGFRβ (557-1016) (Homo sapiens (Human), UniProt P09619); assay: PDGFRβ HTRF Assay; format: biochemical; conditions: read-out: PDGFR HTRF IC50
In short: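 HTRF KinEASE-TK readout (665/620 nm ratio) of TK-biotin substrate phosphorylation by His-tagged PDGFRβ kinase domain. Enzyme and inhibitor preincubated 30 min, then ATP/substrate added for 3 h at room temperature before 60 min EDTA quench/detection.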

[2] = biological target: VEGFR2, unphosphorylated (Homo sapiens (Human), UniProt P35968); assay: VEGFR ADP GLO Assay; format: biochemical
VEGFR2, unphosphorylated, sequence (P35968 20-1356): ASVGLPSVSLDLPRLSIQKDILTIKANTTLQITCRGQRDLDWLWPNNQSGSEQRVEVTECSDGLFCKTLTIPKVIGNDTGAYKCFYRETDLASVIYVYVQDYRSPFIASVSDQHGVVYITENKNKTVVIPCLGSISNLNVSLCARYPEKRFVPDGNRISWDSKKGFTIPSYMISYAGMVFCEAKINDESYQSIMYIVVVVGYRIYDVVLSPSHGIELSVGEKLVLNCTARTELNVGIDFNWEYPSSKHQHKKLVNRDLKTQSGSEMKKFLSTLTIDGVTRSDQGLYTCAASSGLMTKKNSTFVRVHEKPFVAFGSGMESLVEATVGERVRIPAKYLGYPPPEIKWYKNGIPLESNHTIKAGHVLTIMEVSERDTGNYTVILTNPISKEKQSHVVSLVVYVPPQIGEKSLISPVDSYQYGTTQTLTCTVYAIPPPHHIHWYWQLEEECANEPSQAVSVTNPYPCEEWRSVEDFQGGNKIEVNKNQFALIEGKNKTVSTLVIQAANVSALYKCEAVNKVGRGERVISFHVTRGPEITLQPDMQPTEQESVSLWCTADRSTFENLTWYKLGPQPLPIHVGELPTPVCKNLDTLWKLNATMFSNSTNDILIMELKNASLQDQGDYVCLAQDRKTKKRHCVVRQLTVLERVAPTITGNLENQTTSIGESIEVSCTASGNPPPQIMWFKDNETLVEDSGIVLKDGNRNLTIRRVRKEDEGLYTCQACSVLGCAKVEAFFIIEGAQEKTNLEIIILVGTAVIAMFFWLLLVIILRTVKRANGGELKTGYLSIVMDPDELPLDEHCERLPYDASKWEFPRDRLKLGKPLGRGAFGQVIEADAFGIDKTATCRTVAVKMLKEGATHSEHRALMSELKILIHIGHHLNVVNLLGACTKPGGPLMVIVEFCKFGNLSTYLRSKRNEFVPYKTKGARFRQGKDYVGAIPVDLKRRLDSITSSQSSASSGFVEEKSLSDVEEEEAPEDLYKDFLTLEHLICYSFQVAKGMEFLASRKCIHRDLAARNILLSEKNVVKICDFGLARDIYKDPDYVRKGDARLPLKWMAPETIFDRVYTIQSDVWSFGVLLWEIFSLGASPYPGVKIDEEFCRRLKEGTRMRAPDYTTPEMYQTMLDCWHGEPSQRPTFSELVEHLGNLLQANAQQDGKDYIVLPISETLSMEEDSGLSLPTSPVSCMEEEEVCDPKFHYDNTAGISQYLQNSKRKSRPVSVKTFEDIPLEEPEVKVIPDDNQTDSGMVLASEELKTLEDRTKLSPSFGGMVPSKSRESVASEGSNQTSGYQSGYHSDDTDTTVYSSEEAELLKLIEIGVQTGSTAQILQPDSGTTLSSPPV

His6-TEV-PDGFRβ (557-1016), sequence (P09619 557-1016): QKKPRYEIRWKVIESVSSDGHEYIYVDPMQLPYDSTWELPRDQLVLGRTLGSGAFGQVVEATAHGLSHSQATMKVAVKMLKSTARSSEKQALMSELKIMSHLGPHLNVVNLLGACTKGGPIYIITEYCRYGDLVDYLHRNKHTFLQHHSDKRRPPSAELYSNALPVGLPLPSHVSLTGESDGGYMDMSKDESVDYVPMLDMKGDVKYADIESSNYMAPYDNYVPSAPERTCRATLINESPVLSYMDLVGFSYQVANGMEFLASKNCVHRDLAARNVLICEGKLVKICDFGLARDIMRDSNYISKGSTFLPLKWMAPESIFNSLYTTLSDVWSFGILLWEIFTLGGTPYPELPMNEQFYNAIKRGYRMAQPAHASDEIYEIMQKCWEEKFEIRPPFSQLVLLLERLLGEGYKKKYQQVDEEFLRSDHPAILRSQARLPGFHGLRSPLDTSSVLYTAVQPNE

SMILES	IC50 [1]	IC50 [2]
Cc1ncc(C(=O)NC[C@H]2CCCN2CCO)cc1NC(=O)c1cnn2cc(-c3cnn(C)c3)sc12 [Example 236, (R)—N-(5-(((1-(2-hydroxyethyl)pyrrolidin-2-yl)methyl)carbamoyl)-2-methylpyridin-3-yl)-2-(1-methyl-1H-pyrazol-4-yl)pyrazolo[5,1-b]thiazole-7-carboxamide]	2.1 nM	> 2500 nM
Cc1cc(C(=O)NCCN(C)C2CCOCC2)sc1NC(=O)c1cnn2cc(-c3cnn(C)c3)sc12 [Example 192, 2-(1-methyl-1H-pyrazol-4-yl)-N-(3-methyl-5-((2-(methyl(tetrahydro-2H-pyran-4-yl)amino)ethyl)carbamoyl)thiophen-2-yl)pyrazolo[5,1-b]thiazole-7-carboxamide]	34.6 nM	> 7500 nM
Cc1ncc(C(=O)NCCN2C[C@H]3CC[C@@H]2C3)cc1NC(=O)c1cnn2cc(-c3cnn(C)c3C)sc12 [Example 208, N-(5-((2-((1R,4S)-2-azabicyclo[2.2.1]heptan-2-yl)ethyl)carbamoyl)-2-methylpyridin-3-yl)-2-(1,5-dimethyl-1H-pyrazol-4-yl)pyrazolo[5,1-b]thiazole-7-carboxamide]	0.3 nM	> 7500 nM
Cc1ncc(C(=O)NCCN2CC3CCC2C3)cc1NC(=O)c1cnn2cc(-c3cn(C)nc3C)sc12 (centres unmarked) [Example 212, N-(5-((2-(2-azabicyclo[2.2.1]heptan-2-yl)ethyl)carbamoyl)-2-methylpyridin-3-yl)-2-(1,3-dimethyl-1H-pyrazol-4-yl)pyrazolo[5,1-b]thiazole-7-carboxamide]	0.3 nM	> 7500 nM
Cn1cc(-c2cn3ncc(C(=O)Nc4cc(C(=O)NCCN5CCCC5(C)C)ccc4F)c3s2)cn1 [Example 207, N-(5-((2-(2,2-dimethylpyrrolidin-1-yl)ethyl)carbamoyl)-2-fluorophenyl)-2-(1-methyl-1H-pyrazol-4-yl)pyrazolo[5,1-b]thiazole-7-carboxamide]	0.3 nM	> 7500 nM
Cc1ncc(NC(=O)CN2CCN(C)CC2)cc1NC(=O)c1cnn2cc(-c3cnn(C)c3)sc12 [Example 232, 2-(1-methyl-1H-pyrazol-4-yl)-N-(2-methyl-5-(2-(4-methylpiperazin-1-yl)acetamido)pyridin-3-yl)pyrazolo[5,1-b]thiazole-7-carboxamide]	25.9 nM	> 7500 nM
Cc1ncc(NC(=O)CN2CCc3cnn(C)c3C2)cc1NC(=O)c1cnn2cc(-c3cnn(C)c3)sc12 [Example 17, 2-(1-methyl-1H-pyrazol-4-yl)-N-(2-methyl-5-(2-(1-methyl-4,5-dihydro-1H-pyrazolo[3,4-c]pyridin-6 (7H)-yl)acetamido)pyridin-3-yl)pyrazolo[5,1-b]thiazole-7-carboxamide]	0.5 nM	> 7500 nM
Cc1ncc(C(=O)NCCN2CCCC2)cc1NC(=O)c1cnn2cc(-c3cnn(C)c3C)sc12 [Example 220, 2-(1,5-Dimethyl-1H-pyrazol-4-yl)-N-(2-methyl-5-((2-(pyrrolidin-1-yl)ethyl)carbamoyl)pyridin-3-yl)pyrazolo[5,1-b]thiazole-7-carboxamide]	0.2 nM	> 7500 nM
Cc1ncc(C(=O)NCCN2CCCC2)cc1NC(=O)c1cnn2cc(-c3cnn(CCC(O)CO)c3)sc12 (centres unmarked) [Example 222, 2-(1-(3,4-Dihydroxybutyl)-1H-pyrazol-4-yl)-N-(2-methyl-5-((2-(pyrrolidin-1-yl)ethyl)carbamoyl)pyridin-3-yl)pyrazolo[5,1-b]thiazole-7-carboxamide]	0.7 nM	> 7500 nM
Cc1ncc(C(=O)NCCN2CCCC2(C)C)cc1NC(=O)c1cnn2cc(-c3cn(C)nc3CO)sc12 [Example 224, N-(5-((2-(2,2-dimethylpyrrolidin-1-yl)ethyl)carbamoyl)-2-methylpyridin-3-yl)-2-(3-(hydroxymethyl)-1-methyl-1H-pyrazol-4-yl)pyrazolo[5,1-b]thiazole-7-carboxamide]	1.4 nM	> 2500 nM
Cc1ncc(C(=O)NCCN2CCCC23CCC3)cc1NC(=O)c1cnn2cc(-c3cnn(C)c3C)sc12 [Example 209, N-(5-((2-(5-azaspiro[3.4]octan-5-yl)ethyl)carbamoyl)-2-methyl-pyridin-3-yl)-2-(1,5-dimethyl-1H-pyrazol-4-yl)pyrazolo[5,1-b]thiazole-7-carboxamide]	0.3 nM	> 7500 nM
COc1ncccc1-c1cn2ncc(C(=O)Nc3cc(NC(=O)OC[C@@H]4CCCN4C)cnc3C)c2s1 [Example 253, (S)-(1-methylpyrrolidin-2-yl)methyl (5-(2-(2-methoxypyridin-3-yl)pyrazolo[5,1-b]thiazole-7-carboxamido)-6-methylpyridin-3-yl)carbamate]	0.2 nM	> 7500 nM
Cc1ncc(NC(=O)CN2CCC3(COC3)C2)cc1NC(=O)c1cnn2cc(-c3cnn(C)c3)sc12 [Example 18, N-(5-(2-(2-oxa-6-azaspiro[3.4]octan-6-yl)acetamido)-2-methylpyridin-3-yl)-2-(1-methyl-1H-pyrazol-4-yl)pyrazolo[5,1-b]thiazole-7-carboxamide]	0.6 nM	> 7500 nM
Cc1ncc(NC(=O)OCC(C)(C)N2CCCC2)cc1NC(=O)c1cnn2cc(-c3cnn(C)c3)sc12 [Example 249, 2-methyl-2-(pyrrolidin-1-yl)propyl (6-methyl-5-(2-(1-methyl-1H-pyrazol-4-yl)pyrazolo[5,1-b]thiazole-7-carboxamido)pyridin-3-yl)carbamate]	0.5 nM	> 7500 nM
Cc1ncc(NC(=O)OCCN2CCCC2)cc1NC(=O)c1cnn2cc(-c3cnn(C)c3)sc12 [Example 246, 2-(pyrrolidin-1-yl)ethyl (6-methyl-5-(2-(1-methyl-1H-pyrazol-4-yl)pyrazolo[5,1-b]thiazole-7-carboxamido)pyridin-3-yl)carbamate]	1.4 nM	> 7500 nM
Cc1ncc(C(=O)NCCN2CCCC2(C)C)cc1NC(=O)c1cnn2cc(-c3cnn(CCC(O)CO)c3)sc12 (centres unmarked) [Example 221, 2-(1-(3,4-Dihydroxybutyl)-1H-pyrazol-4-yl)-N-(5-((2-(2,2-dimethylpyrrolidin-1-yl)ethyl)carbamoyl)-2-methylpyridin-3-yl)pyrazolo[5,1-b]thiazole-7-carboxamide]	0.9 nM	> 7500 nM
Cc1ncc(C(=O)NCCN2CC3CCC2C3)cc1NC(=O)c1cnn2cc(-c3cnn(C)c3C)sc12 (centres unmarked) [Example 210, N-(5-((2-(2-azabicyclo[2.2.1]heptan-2-yl)ethyl)carbamoyl)-2-methylpyridin-3-yl)-2-(1,5-dimethyl-1H-pyrazol-4-yl)pyrazolo[5,1-b]thiazole-7-carboxamide]	0.3 nM	> 7500 nM
Cc1ncc(NC(=O)OC[C@@H]2CCCN2C(C)C)cc1NC(=O)c1cnn2cc(-c3cnn(C)c3)sc12 [Example 245, (S)-(1-isopropylpyrrolidin-2-yl)methyl (6-methyl-5-(2-(1-methyl-1H-pyrazol-4-yl)pyrazolo[5,1-b]thiazole-7-carboxamido)pyridin-3-yl)carbamate]	0.4 nM	> 7500 nM
COc1ncccc1-c1cn2ncc(C(=O)Nc3cc(C(=O)NCCN4CCCC4(C)C)cnc3C)c2s1 [Example 226, N-(5-((2-(2,2-Dimethylpyrrolidin-1-yl)ethyl)carbamoyl)-2-methylpyridin-3-yl)-2-(2-methoxypyridin-3-yl)pyrazolo[5,1-b]thiazole-7-carboxamide]	0.2 nM	> 2500 nM
Cc1cc(C(=O)NCCN2CCC3(CCC3)CC2)sc1NC(=O)c1cnn2cc(-c3cnn(C)c3)sc12 [Example 203, N-(5-((2-(7-azaspiro[3.5]nonan-7-yl)ethyl)carbamoyl)-3-methylthiophen-2-yl)-2-(1-methyl-1H-pyrazol-4-yl)pyrazolo[5,1-b]thiazole-7-carboxamide]	25 nM	> 7500 nM
Cc1cc(C(=O)NCC(C)(C)N2CCCC2)sc1NC(=O)c1cnn2cc(-c3cnn(C)c3)sc12 [Example 202, 2-(1-methyl-1H-pyrazol-4-yl)-N-(3-methyl-5-((2-methyl-2-(pyrrolidin-1-yl)propyl)carbamoyl)thiophen-2-yl)pyrazolo[5,1-b]thiazole-7-carboxamide]	1070 nM	> 7500 nM
Cc1ncc(C(=O)NCCN2C[C@H]3CC[C@@H]2C3)cc1NC(=O)c1cnn2cc(-c3cn(C)nc3C)sc12 [Example 211, N-(5-((2-((1R,4S)-2-azabicyclo[2.2.1]heptan-2-yl)ethyl)carbamoyl)-2-methylpyridin-3-yl)-2-(1,3-dimethyl-1H-pyrazol-4-yl)pyrazolo[5,1-b]thiazole-7-carboxamide]	0.3 nM	> 7500 nM
Cc1cc(C(=O)NCCN2CCC(C)(C)CC2)sc1NC(=O)c1cnn2cc(-c3cnn(C)c3)sc12 [Example 183, N-(5-((2-(4,4-dimethylpiperidin-1-yl)ethyl)carbamoyl)-3-methylthiophen-2-yl)-2-(1-methyl-1H-pyrazol-4-yl)pyrazolo[5,1-b]thiazole-7-carboxamide]	11.1 nM	> 7500 nM
Cc1ncc(NC(=O)CCN2CCCC2(C)C)cc1NC(=O)c1cnn2cc(-c3cccc4c3cnn4C)sc12 [Example 241, N-(5-(3-(2,2-dimethylpyrrolidin-1-yl)propanamido)-2-methylpyridin-3-yl)-2-(1-methyl-1H-indazol-4-yl)pyrazolo[5,1-b]thiazole-7-carboxamide]	0.1 nM	> 2500 nM
Cc1ncc(C(=O)NCCN2CCCC2(C)C)cc1NC(=O)c1cnn2cc(-c3cncc(S(C)(=O)=O)c3)sc12 [Example 230, N-(5-((2-(2,2-dimethylpyrrolidin-1-yl)ethyl)carbamoyl)-2-methylpyridin-3-yl)-2-(5-(methylsulfonyl)pyridin-3-yl)pyrazolo[5,1-b]thiazole-7-carboxamide]	3.2 nM	> 2500 nM
